Reference: US6908734B2, “Sulfated CCR5 peptides for HIV-1 infection” (priority 2000, dated 2005)
Where no end group is shown, it is not given here. [ ]: non-standard residue; d: D form. The star is where a group is joined. Biotin = O=C1N[C@H]2[C@H](CS[C@H]2CCCCC(=O)*)N1; sY = N[C@@H](Cc1ccc(OS(=O)(=O)O)cc1)C(=O)O; pY = N[C@@H](Cc1ccc(OP(=O)(O)O)cc1)C(=O)O

Tests used:
gp120LAI/CD4-IgG2 = gp120LAI/CD4-IgG2 (Human immunodeficiency virus type 1 group M subtype B, UniProt P03377); settings: peptide 1 μg/ml on streptavidin plate
Experimental: Streptavidin-coated ELISA plates (Pierce, Rockford, Ill.) were blocked with D-PBS/5% BSA for 2 hours at room temperature then washed three times with assay buffer (D-PBS/0.5% Tween 20/1% Fetal Bovine Serum/2% BSA). Plates were then contacted with sulfo- or phospho-peptides (1 μg/ml) for 1 hour at room temperature and washed three times with assay buffer. Mixtures of CD4-IgG2 (50 nM) and purified gp120 or gp120-containing supernatants in a 1:4 molar ratio were added to the plates for 1 hour at room temperature. Plates were washed three times and (HRP)-conjugated goat anti-human IgG was used to detect the presence of bound CD4-IgG2. The plates were developed using the TMB substrate as described above. Gp120/CD4-IgG2 binding to the peptides was normalized for CD4-IgG2binding to the mutant gp120 proteins.

gp120JR-FL/CD4-IgG2 = test: CCR5 Nt peptide ELISA with gp120JR-FL/CD4-IgG2; format: binding, HIV-1; settings: peptide 1 μg/ml on streptavidin plate
Experimental: (§2) Streptavidin-coated ELISA plates (Pierce, Rockford, Ill.) were blocked with D-PBS/5% BSA for 2 hours at room temperature then washed three times with assay buffer (D-PBS/0.5% Tween 20/1% Fetal Bovine Serum/2% BSA). Plates were then contacted with sulfo- or phospho-peptides (1 μg/ml) for 1 hour at room temperature and washed three times with assay buffer. […] The plates were developed using the TMB substrate as described above.

PA8 = test: ELISA: direct binding of anti-CCR5 MAb PA8 to peptides; set-up: species or system murine
Experimental: (§1) In a competition ELISA, peptides were captured onto the plates as described above. Inhibitor or assay buffer was added for 1 h prior to addition of gp120JR-FL/CD4-IgG2 complex (1 nM) for an additional h at room temperature. The assay was then completed as described above. Direct binding of anti-CCR5 murine MAbs to the peptides was examined as described above except that MAb was substituted for gp120/CD4-IgG2 complex and a goat anti-mouse HRP-coupled antibody was used for detection.

PA11 = test: ELISA: direct binding of anti-CCR5 MAb PA11 to peptides; set-up: species or system murine
Experimental: as §1

PA14 = test: ELISA: direct binding of anti-CCR5 MAb PA14 to peptides; set-up: species or system murine
Experimental: as §1

PA10 = test: ELISA: direct binding of anti-CCR5 MAb PA10 to peptides; set-up: species or system murine
Experimental: as §1

PA12 = test: ELISA: direct binding of anti-CCR5 MAb PA12 to peptides; set-up: species or system murine
Experimental: as §1

gp120DH123/CD4-IgG2 = test: CCR5 Nt peptide ELISA with gp120DH123/CD4-IgG2; format: binding, HIV-1; settings: peptide 1 μg/ml on streptavidin plate
Experimental: as §2

[1] = system: V3 loop-deleted gp120JR-FL/CD4-IgG2; test: CCR5 Nt peptide ELISA with V3 loop-deleted gp120JR-FL/CD4-IgG2; format: binding, HIV-1
Experimental: as §2

[2] = system: gp120JR-FL alanine mutants/CD4-IgG2; test: ELISA: binding of gp120JR-FL alanine mutant/CD4-IgG2 complexes to sulfopeptide 2-18; set-up: species or system HIV-1
Experimental: Mutant gp120 proteins were generated using the QuickChange Kit from Stratagene (San-Diego, Calif.). Gp120JR-FL, cloned into the pPPI4 expression vector [4], served as the template for site directed mutagenesis. Nucleotide sequencing was performed to ascertain the presence of the appropriate mutation in the gp120 coding sequence. 293T cells were calcium phosphate transfected with the different mutant gp120 expression constructs. Supernatants containing soluble gp120 proteins were harvested and cleared of debris by centrifugation 24 hours post-transfection. Quantification of gp120 was performed by ELISA as previously described). Briefly, 293T supernatants were boiled for 5 minutes and denatured gp120 was captured on an ELISA plate coated with D7324 (International Enzymes Inc. Fallbrook, Calif.), a MAb that recognizes a 15 residue linear epitope in the carboxy-terminal end of gp120. Captured gp120 was detected by a mixture of anti-gp120 MAbs B12 and B13 [40], followed by incubation with a horseradish peroxidase-conjugated (HRP) anti-mouse IgG antibody (Amersham Pharmacia, Piscataway, N.J.). Optical density (O.D.) was measured at 450 nm using the ImmunoPure TMB Substrate kit (Pierce, Rockford, Ill.).
CD4-IgG2 binding to non-denatured mutant gp120 proteins also was measured. Plates coated with D7324 were used to capture native gp120 from supernatants of transiently transfected 293T cells. CD4-IgG2 (50 nM) was added to the plates and its binding was detected using an HRP-conjugated goat anti-human IgG and TMB substrate as described above.

CD4-IgG2 = CD4-IgG2 (Homo sapiens, UniProt P01730+P01834+P01859); test: CCR5 Nt peptide ELISA with CD4-IgG2 alone; format: binding
Experimental: as §2

[3] = biological target: T1, gp120JR-FL/CD4-IgG2 binding to the sulfopeptide 2-18 (Homo sapiens, UniProt P51681); test: Competition ELISA: gp120JR-FL/CD4-IgG2 binding to sulfopeptide 2-18; set-up: species or system HIV-1; settings: complex 1 nM, up to supraphysiologic concentrations
T1 construct: a peptide spanning CCR5 residues 2-18 and containing sulfotyrosines in positions 10 and 14; host or cells: peptide synthetic
Experimental: as §1

[4] = biological target: T2, gp120/CD4 binding to cell surface CCR5 (Homo sapiens, UniProt P51681); settings: cited from earlier work
T2 construct: Supernatants containing soluble gp120 proteins were harvested; made in house; host or cells: gp120: 293T supernatants; CCR5: L1.2-CCR5+ cells
T2 sequence (P51681 whole entry): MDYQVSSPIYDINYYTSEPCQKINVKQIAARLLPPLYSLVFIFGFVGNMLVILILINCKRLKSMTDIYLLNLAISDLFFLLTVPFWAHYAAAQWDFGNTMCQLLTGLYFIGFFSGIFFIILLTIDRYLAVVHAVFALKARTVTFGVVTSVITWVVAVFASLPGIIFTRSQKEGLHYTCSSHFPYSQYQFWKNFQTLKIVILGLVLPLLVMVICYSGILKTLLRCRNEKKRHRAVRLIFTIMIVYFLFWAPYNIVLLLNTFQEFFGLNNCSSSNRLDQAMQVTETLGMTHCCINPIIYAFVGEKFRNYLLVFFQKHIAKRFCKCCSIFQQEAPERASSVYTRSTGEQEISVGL

For “2-18(P): analogous CCR5 Nt phosphopeptide, residues 2-18, phosphotyrosines in positions 10 and 14, GAG spacer, biotinylated lysine (DYQVSSPI[pY]DIN[pY]YTSEGAGK(Biotin))”, the “Binding of gp120LAI/CD4-IgG2 to peptide (ELISA)” value (gp120LAI/CD4-IgG2) was “No binding was observed”, the “Binding of gp120JR-FL/CD4-IgG2 to peptide (ELISA)” value (gp120JR-FL/CD4-IgG2) was “No binding was observed” and the “Binding of PA8 to peptide (ELISA)” value (PA8) was “avidly binds”. The “Binding of PA11 to peptide (ELISA)” value (PA11) was “weakly”, the “Binding of PA14 to peptide (ELISA)” value (PA14) was “does not recognize” and the “Binding of PA10 to peptide (ELISA)” value (PA10) was “moderately”. For the same compound, the “Binding of PA12 to peptide (ELISA)” value (PA12) was “undetectable” and the “Binding of gp120DH123/CD4-IgG2 to peptide (ELISA)” value (gp120DH123/CD4-IgG2) was “No binding was observed”.

In the case of “2-18: peptide spanning CCR5 residues 2-18, sulfotyrosines in positions 10 and 14, carboxy terminal GAG spacer and biotinylated lysine (DYQVSSPI[sY]DIN[sY]YTSEGAGK(Biotin))”, the “Binding of V3 loop-deleted gp120JR-FL/CD4-IgG2 to peptide (ELISA)” value [1] is reported as “did not measurably bind”, the “Binding of gp120LAI/CD4-IgG2 to peptide (ELISA)” value (gp120LAI/CD4-IgG2) is reported as “did not measurably bind” and the “Binding of gp120JR-FL/CD4-IgG2 to peptide (ELISA)” value (gp120JR-FL/CD4-IgG2) is reported as “strongest binding”. For the same compound, the “Binding of PA8 to peptide (ELISA)” value (PA8) was “avidly binds”, the “Binding of PA11 to peptide (ELISA)” value (PA11) was “binds moderately” and the “Effect of V3 loop crown residues on gp120 binding to the sulfopeptide” value ([2]; alanine mutants in the crown of the V3 loop, including the GPGR motif) was “no effect”. The “Decrease of complex binding to the sulfopeptide by C4 alanine substitutions” value ([2]; alanine substitutions of R419, I420, K421, Q422 and R444) was 5-10 fold, the “Effect of alanine substitutions of R440 and R469 on complex binding” value ([2]; gp120 R440A, R469A) was “increased complex binding” and the “Decrease of complex binding to the peptide by V3 loop stem alanine mutants” value ([2]; gp120 alanine mutants R298, N301, T303, I322, D324, I325, R326, normalized for CD4-IgG2 binding) was greater than 10 fold. For the same compound, the “Effect of alanine substitutions in other regions of gp120 on complex-peptide interactions” value ([2]; other regions of gp120) was “None of the alanine substitutions that we introduced in the other regions of gp120 significantly affected”, the “Binding of PA14 to peptide (ELISA)” value (PA14) was “does not recognize” and the “Binding of PA10 to peptide (ELISA)” value (PA10) was “binds avidly”. For the same compound, the “Binding of PA12 to peptide (ELISA)” value (PA12) was “weak” and the “Binding of CD4-IgG2 alone to peptide (ELISA)” value (CD4-IgG2) was “did not measurably bind”.

In the case of `Cc1ccc(-c2ccc3c(c2)C=C(C(=O)Nc2ccc(C[N+](C)(C)C4CCOCC4)cc2)CCC3)cc1.[Cl-]` [TAK-779], the “Inhibition of gp120JR-FL/CD4-IgG2 binding to the sulfopeptide 2-18” value [3] is given as “not inhibited” and the “Block of gp120/CD4 binding to CCR5” value [4] is given as “block”.
